Results from patent publication US8288350B2, “Methods to prevent and treat diseases” (Nour Heart, Inc., priority 2006, dated 2012).
Where no end group is shown, it is not given here. The star is where a group is joined. Boc = CC(C)(C)OC(=O)*

Assays:
[1] = Global warm ischemia by aortic cross clamping, then working Longerdorff heart; type: in vivo, dog
Protocol: Cyclocreatine (25 gm in 500 ml saline) was injected intravenously into a dog one hour before the induction of global warm ischemia. Control dogs received saline. All dogs underwent one hour of global warm ischemia by cross clamping the aorta. After the one hour of warm ischemia, hearts were removed, perfused for an additional four hours with buffer containing 1% cyclocreatine ([…]), and then placed on a working Longerdorff to measure cardiac function. After the initiation of the aortic cross clamping, cyclocreatine-treated heart continued to beat for 9 minutes during warm ischemia, while the control heart stopped beating after 2 minutes. Similarly, myocardial pH was 7.04 in the cyclocreatine-treated heart compared to pH 6.00 in control heart when measured 6 minutes after the induction of warm ischemia.
The results indicated a reduction of the caspase enzyme activities in the cyclocreatine dog (26-76% reduction of baseline) compared to the significant stimulation observed in control dogs (1.44-3.86-fold increase over baseline). […] Cyclocreatine treatment may stimulate the anti-apoptotic members of the family such as Bcl-2 and/or Bcl-x, or inhibit the pro-apoptotic members of the family such as Bak, Bax, and Bim.

[2] = test system: Neutrophils isolated from human peripheral blood; assay: Inhibition of neutrophil chemotaxis induced by human vascular Nourin (vein graft samples, 96 well chemotaxis plates); type: cell-based
Protocol: Isolated Human Vein Grafts: Patients' leg veins were removed from five patients scheduled for coronary bypass surgery. The samples for each patient were distended for 10 minutes at 300 mm Hg pressure and incubated in buffer (HBSS) for 1 hour at room temperature. Undistended vein grafts were incubated at room temperature in HBSS for one hour and then the solutions were tested for chemotactic activity.
Chemotaxis Assay: The chemotactic activity of vein samples was tested using standard chemotaxis assay. Briefly, neutrophils were isolated from human peripheral blood and labeled by fluorescence dye. These labeled neutrophils were used as migratory cells and placed on the top chamber of the 96 well chemotaxis plates. The vein samples were placed at the bottom wells of the plate. A filter was placed in between and the ability of the tested samples to stimulate the migration of neutrophils across the membrane was determined by incubating the chamber at 37° C. for 1 hour. The standard synthetic chemoattractant f-Met-Leu-Phe (f-MLF (SEQ ID NO:11)) was used as the positive control for 100% chemotactic response. Hank's Balanced Salt Solution (HBSS) was the negative control for random migration. Neutrophil migration was reported as the number of labeled neutrophils detected at the bottom wells which crossed the membrane filter in response to the test solutions. The samples were tested in triplicate wells.
Inhibition of the human vascular Nourin by the N-formylmethionyl blocker t-Boc-FLFLF (SEQ ID NO:2): t-Boc FLFLF (SEQ ID NO:2) is a FPR antagonist and was tested for its ability to inhibit Nourin activity on neutrophil migration. In the chemotaxis chamber, t-Boc-FLFLF (SEQ ID NO:2) was used at a final concentrations of 10^−5 Molar. […] In one human sample, t-Boc-FLFLF (SEQ ID NO:2) inhibited 100% of neutrophil chemotaxis. Similarly, the FPR antagonist Spinorphin inhibited neutrophil chemotaxis stimulated by Nourin.

[3] = test system: Neutrophils isolated from human peripheral blood; assay: Inhibition of neutrophil chemotaxis induced by chemotactic factor released by H1N1-infected MDCK cells (modified chemotaxis chamber); type: cell-based; settings: concentrations about 10^-5 to 10^-3 Molar; supernatant of MDCK cells incubated with H1N1 for 6 hours
[4] = test system: Neutrophils isolated from human peripheral blood; assay: Inhibition of fMLF chemotactic activity (chemotaxis chamber); type: cell-based; settings: FIG. 3

## NC1=NCCN1CC(=O)O [cyclocreatine]
[1]; 6 minutes after induction of warm ischemia, control pH 6.00
  myocardial pH: 7.04
[1]; control dogs 1.44-3.86-fold increase over baseline
  reduction of caspase enzyme activities: 26-76 % reduction of baseline
[1]; dog, 25 gm in 500 ml saline i.v. one hour before ischemia, control 2 minutes
  time heart continued to beat during warm ischemia after aortic cross clamping: 9 min
[1]; dog, in vivo
  TNF-α released by monocytes: reduced
  inflammation/pain and injury induced by inflammation: reduced
  level of the cardiac-derived leukocyte factor: reduced
[1]; one-hour analysis, control strong only first 15-20 minutes
  contractility on the Longerdorff working heart: strong contractility throughout the one-hour analysis
[1]; treated heart vs controls
  apoptosis as measured by caspase enzyme activity: significant reduction
  myocardial ATP compared to controls: three-fold increase
[1]; vs control
  intracellular edema as measured by MRI: reduced
  myocardial tissue lactic acidosis (per MRI): reduced
[1]; vs controls
  level of cell injury marker malondialdehyde: reduced

## LVVYPWT [Spinorphin, Leu-Val-Val-Tyr-Pro-Trp-Thr]
[2]
  inhibition of neutrophil chemotaxis stimulated by Nourin: inhibited

## t-Boc-Phe-Leu-Phe-Leu-Phe (Boc-FLFLF; not fully specified (residues 2, 4); printed as t-Boc-Phe-Leu-Phe-Leu-Phe)
[3]
  inhibition of neutrophil chemotaxis induced by viral chemotactic factor: 30%-100%
[4]
  inhibition of fMLF chemotactic activity: inhibits
[2]; 10^-5 M final concentration
  inhibition of neutrophil chemotaxis induced by vascular Nourin: up to 60%
[2]; one human sample
  inhibition of neutrophil chemotaxis induced by vascular Nourin, one human sample: 100%
